In PMC6695665, “Interrogating the Essential Bacterial Cell Division Protein FtsQ with Fragments Using Target Immobilized NMR Screening (TINS)” (International Journal of Molecular Sciences, 2019):
Where two headings read alike, the source gives them in different places.

Columns and labels:
Assay in all cases: 1H, […]-HSQC NMR chemical shift perturbation; TINS primary screen (T/R […])
Assay type in all cases: binding
[1] = biological target: T1, FtsQ (Escherichia coli, UniProt P06136)
T1 construct: soluble periplasmic domain (FtsQp), 15N-labeled, N-terminal tags cleaved by TEV

[2] = biological target: T1, FtsQ; remark: listed apart in the source
[3] = biological target: T1, FtsQ; remark: listed apart in the source

T1 sequence (P06136 50-276): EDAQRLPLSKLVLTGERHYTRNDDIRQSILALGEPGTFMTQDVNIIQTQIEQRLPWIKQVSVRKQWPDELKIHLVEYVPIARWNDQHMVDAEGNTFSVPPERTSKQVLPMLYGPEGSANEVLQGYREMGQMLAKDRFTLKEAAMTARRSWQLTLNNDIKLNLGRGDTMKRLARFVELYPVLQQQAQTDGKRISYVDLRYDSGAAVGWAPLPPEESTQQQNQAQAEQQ

N[C@@H](Cc1cn(Cc2ccccc2)cn1)C(=O)O [compound 1]
Kd [1]: > 1 mM

C=C1[C@H](O)C[C@@H]2C[C@H]1C2(C)C [compound 2]
Kd [2]: > 1 mM

CN(C)c1nc(=O)n(C2CCCCC2)c(=O)n1C [compound 3]
Kd [3]: > 1 mM
